The text below walks through data of US10011586B2, “Heterocyclic compound, method for preparing the same, and pharmaceutical composition comprising the same” (Daewoong Pharmaceutical Co., Ltd., priority 2015, dated 2018).

The target in one assay is T1, PRS enzyme (Homo sapiens, UniProt P07814).
T1 construct: the portion corresponding to PRS in cDNA of EPRS was subcloned; made in house
T1 sequence (P07814 1007-1512 limits assumed): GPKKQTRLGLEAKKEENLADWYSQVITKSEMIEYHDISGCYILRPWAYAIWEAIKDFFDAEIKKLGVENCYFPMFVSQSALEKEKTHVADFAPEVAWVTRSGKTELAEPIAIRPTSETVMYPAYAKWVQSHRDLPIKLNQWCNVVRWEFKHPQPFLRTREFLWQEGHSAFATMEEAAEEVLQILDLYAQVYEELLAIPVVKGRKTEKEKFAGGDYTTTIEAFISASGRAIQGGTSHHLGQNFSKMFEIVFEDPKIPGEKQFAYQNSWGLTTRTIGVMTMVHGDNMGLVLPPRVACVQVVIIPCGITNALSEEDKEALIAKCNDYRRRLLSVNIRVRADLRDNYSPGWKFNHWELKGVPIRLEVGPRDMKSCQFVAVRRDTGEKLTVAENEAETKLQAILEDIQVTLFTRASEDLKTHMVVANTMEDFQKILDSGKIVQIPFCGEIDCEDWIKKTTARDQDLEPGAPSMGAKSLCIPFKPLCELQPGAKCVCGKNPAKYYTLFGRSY
In words: PRS enzyme activity inhibition experiment. It is filed as biochemical. Conditions: purified PRS protein subcloned from EPRS cDNA; [3H]proline, 37° C., 5 to 10 minutes, liquid scintillation counter; read-out: PRS IC50. As for the experimental part: Specifically, the portion corresponding to PRS in cDNA of EPRS was subcloned, and the obtained high-purity PRS protein was purified and used in the experiment. The compounds (1 μM) prepared in Examples were added into the reaction buffer (20 mM KPO4 (pH 7.4), 6 mM MgAc, 5 mM ATP, […] tRNA, 0.5 mM DTT, […][^3H]proline (1 mCi/mL)) and allowed to react at 37° C. for 5 to 10 minutes. The reaction was terminated with 3M paper that was in advance dried by addition of 5% TCA. The radioactivity was measured using a liquid scintillation counter.
% Inhibition and IC50 values of the respective compounds were calculated and analyzed using Microsoft Excel or Sigma Plot 8.0. In Table 1, the results are divided into A, B and C according to the range of IC50.

The subject of a further assay is NCI-H460 cells. In words: Cancer cell growth inhibition experiment (MTT assay). The format is cell-based. The settings on record: Homo sapiens, lung cancer cell line, compounds 48 hours, cell viability by MTT assay. Here is the method:
NCl-H460 cells, lung cancer cell lines, were cultured in 5% CO2, 37° C. incubator using a flask for 75 cm^2 tissue culture. 96-well plates were used for the evaluation. These were prepared by differently applying at concentrations in the range of 6,000 to 12,000 cells/well according to the growth rate of the cell lines. The medium containing 5% FBS were dispensed in 200 μL/well and used. The medium were cultured for 24 hours. After confirming the cell status and dispensing form of a 96-well plate under a microscope, they were used for subsequent experiments. The compounds were evaluated at concentrations of 100, 30, 10, 3, 1, 0.3, 0.03, 0.01 μM. After removing the existing medium, the compounds with various concentrations were treated in an amount of 200 μL/well. The compounds-treated plates were further cultured for 48 hours, and the cell viabilities were measured by MTT assay to calculate IC50 values.
% Inhibition and IC50 values of the respective compounds were calculated and analyzed using Sigma Plot 8.0. In Table 2, the results are divided into A, B and C according to the range of IC50. The case where the derived IC50 is 3 μM or less is represented by “A”, the case where the IC50 is 3 to 10 μM is represented by “B”, and the case where the IC50 is 10 μM or higher is represented by “C”.

On to `COc1cccc(-c2ccc3c(ncn3CC(=O)C[C@H]3NCCC[C@@H]3O)c2C)c1` [Example 22, 1-((2R,3S)-3-hydroxypiperidin-2-yl)-3-(5-(3-methoxyphenyl)-4-methyl-1H-benzo[d]imidazol-1-yl)propan-2-one], for which the IC50 at PRS enzyme was greater than 500 nM; with NCI-H460 cells, no less than 10000 nM.

On to `Cc1c(-c2cscn2)ccc2c1ncn2CC(=O)C[C@H]1NCCC[C@@H]1O` [Example 23, 1-((2R,3S)-3-hydroxypiperidin-2-yl)-3-(4-methyl-5-(thiazol-4-yl)-1H-benzo[d]imidazol-1-yl)propan-2-one], for which the IC50 was less than 100 nM at PRS enzyme and no less than 10000 nM with NCI-H460 cells.

`O=C(C[C@H]1NCCC[C@@H]1O)Cn1cnc2ccc(-c3ccccc3)cc21` [Example 24, 1-((2R,3S)-3-hydroxypiperidin-2-yl)-3-(6-phenyl-1H-benzo[d]imidazol-1-yl)propan-2-one]: the figures for the IC50 at PRS enzyme and in the assay on NCI-H460 cells were less than 100 nM and 3000 to 10000 nM, respectively.

With `O=C(C[C@H]1NCCC[C@@H]1O)Cn1cnc2ccc(-c3cccc(F)c3)cc21` [Example 25, 1-(6-(3-fluorophenyl)-1H-benzo[d]imidazol-1-yl)-3-((2R,3S)-3-hydroxypiperidin-2-yl)propan-2-one], the IC50 on PRS enzyme is less than 100 nM; with NCI-H460 cells it was no more than 3000 nM.

On to `O=C(C[C@H]1NCCC[C@@H]1O)Cn1cnc2ccc(-c3ccccc3Cl)cc21` [Example 26, 1-(6-(2-chlorophenyl)-1H-benzo[d]imidazol-1-yl)-3-((2R,3S)-3-hydroxypiperidin-2-yl)propan-2-one], for which the IC50 was less than 100 nM on PRS enzyme and 3000 to 10000 nM in the assay on NCI-H460 cells.

On to `O=C(C[C@H]1NCCC[C@@H]1O)Cn1cnc2ccc(-c3cccc(Cl)c3)cc21` [Example 27, 1-(6-(3-chlorophenyl)-1H-benzo[d]imidazol-1-yl)-3-((2R,3S)-3-hydroxypiperidin-2-yl)propan-2-one], for which the figures for the IC50 at PRS enzyme and in the assay on NCI-H460 cells were less than 100 nM and no more than 3000 nM, respectively.

For the molecule `O=C(C[C@H]1NCCC[C@@H]1O)Cn1cnc2ccc(-c3ccc(Cl)cc3)cc21` [Example 28, 1-(6-(4-chlorophenyl)-1H-benzo[d]imidazol-1-yl)-3-((2R,3S)-3-hydroxypiperidin-2-yl)propan-2-one], the half-maximal inhibitory concentration (IC50) was less than 100 nM on PRS enzyme and 3000 to 10000 nM in the assay on NCI-H460 cells.

Regarding `O=C(C[C@H]1NCCC[C@@H]1O)Cn1cnc2ccc(-c3cccc(C(F)(F)F)c3)cc21` [Example 29, 1-((2R,3S)-3-hydroxypiperidin-2-yl)-3-(6-(3-(trifluoromethyl)phenyl)-1H-benzo[d]imidazol-1-yl)propan-2-one], the concentration for half-maximal inhibition (IC50) on PRS enzyme was less than 100 nM; in the assay with NCI-H460 cells it was no more than 3000 nM.

In the case of `Cc1cccc(-c2ccc3ncn(CC(=O)C[C@H]4NCCC[C@@H]4O)c3c2)c1` [Example 30, 1-((2R,3S)-3-hydroxypiperidin-2-yl)-3-(6-(m-tolyl)-1H-benzo[d]imidazol-1-yl)propan-2-one], the results for the IC50 on PRS enzyme and in the assay with NCI-H460 cells were less than 100 nM and 3000 to 10000 nM, respectively.

Consider `O=C(C[C@H]1NCCC[C@@H]1O)Cn1cnc2ccc(-c3cc(Cl)cc(Cl)c3)cc21` [Example 31, 1-(6-(3,5-dichlorophenyl)-1H-benzo[d]imidazol-1-yl)-3-((2R,3S)-3-hydroxypiperidin-2-yl)propan-2-one], for which the half-inhibitory concentration (IC50) is less than 100 nM at PRS enzyme and 3000 to 10000 nM in the assay with NCI-H460 cells.

Consider `O=C(C[C@H]1NCCC[C@@H]1O)Cn1cnc2ccc(-c3cc(F)cc(Cl)c3)cc21` [Example 32, 1-(6-(3-chloro-5-fluorophenyl)-1H-benzo[d]imidazol-1-yl)-3-((2R,3S)-3-hydroxypiperidin-2-yl)propan-2-one], for which the half-inhibitory concentration (IC50) on PRS enzyme was less than 100 nM; in the assay on NCI-H460 cells, no more than 3000 nM.

`O=C(C[C@H]1NCCC[C@@H]1O)Cn1cnc2ccc(-c3ccc(F)c(Cl)c3)cc21` [Example 33, 1-(6-(3-chloro-4-fluorophenyl)-1H-benzo[d]imidazol-1-yl)-3-((2R,3S)-3-hydroxypiperidin-2-yl)propan-2-one]: the IC50 at PRS enzyme is less than 100 nM; with NCI-H460 cells, 3000 to 10000 nM.

`Cc1cc(Cl)cc(-c2ccc3ncn(CC(=O)C[C@H]4NCCC[C@@H]4O)c3c2)c1` [Example 34, 1-(6-(3-chloro-5-methylphenyl)-1H-benzo[d]imidazol-1-yl)-3-((2R,3S)-3-hydroxypiperidin-2-yl)propan-2-one]: the IC50 on PRS enzyme is less than 100 nM; with NCI-H460 cells it was 3000 to 10000 nM.

With `COc1cc(Cl)cc(-c2ccc3ncn(CC(=O)C[C@H]4NCCC[C@@H]4O)c3c2)c1` [Example 35, 1-(6-(3-chloro-5-methoxyphenyl)-1H-benzo[d]imidazol-1-yl)-3-((2R,3S)-3-hydroxypiperidin-2-yl)propan-2-one], the IC50 was less than 100 nM on PRS enzyme and 3000 to 10000 nM in the assay with NCI-H460 cells.

On to `N#Cc1cc(Cl)cc(-c2ccc3ncn(CC(=O)C[C@H]4NCCC[C@@H]4O)c3c2)c1` [Example 36, 3-chloro-5-(1-(3-((2R,3S)-3-hydroxypiperidin-2-yl)-2-oxopropyl)-1H-benzo[d]imidazol-6-yl)benzonitrile], for which the half-inhibitory concentration (IC50) at PRS enzyme is less than 100 nM; with NCI-H460 cells it was 3000 to 10000 nM.

For the molecule `O=C(C[C@H]1NCCC[C@@H]1O)Cn1cnc2ccc(-c3cn[nH]c3)cc21` [Example 37, 1-(6-(1H-pyrazol-4-yl)-1H-benzo[d]imidazol-1-yl)-3-((2R,3S)-3-hydroxypiperidin-2-yl)propan-2-one], the 50% inhibitory concentration (IC50) on PRS enzyme was less than 100 nM; in the assay on NCI-H460 cells, no less than 10000 nM.

On to `O=C(C[C@H]1NCCC[C@@H]1O)Cn1cnc2ccc(-c3cc[nH]n3)cc21` [Example 38, 1-(6-(1H-pyrazol-3-yl)-1H-benzo[d]imidazol-1-yl)-3-((2R,3S)-3-hydroxypiperidin-2-yl)propan-2-one], for which the figures for the concentration for half-maximal inhibition (IC50) on PRS enzyme and in the assay with NCI-H460 cells were 100 to 500 nM and no less than 10000 nM, respectively.

Regarding `O=C(C[C@H]1NCCC[C@@H]1O)Cn1cnc2ccc(-c3cscn3)cc21` [Example 39, 1-((2R,3S)-3-hydroxypiperidin-2-yl)-3-(6-(thiazol-4-yl)-1H-benzo[d]imidazol-1-yl)propan-2-one], the values for the concentration for half-maximal inhibition (IC50) at PRS enzyme and in the assay on NCI-H460 cells were 100 to 500 nM and no less than 10000 nM, respectively.

Take `O=C(C[C@H]1NCCC[C@@H]1O)Cn1cnc2ccc(-c3ccc(=O)[nH]c3)cc21` [Example 40, 5-(1-(3-((2R,3S)-3-hydroxypiperidin-2-yl)-2-oxopropyl)-1H-benzo[d]imidazol-6-yl)pyridin-2(1H)-one]: the IC50 at PRS enzyme was greater than 500 nM; with NCI-H460 cells, no less than 10000 nM.

Take `O=C(C[C@H]1NCCC[C@@H]1O)Cn1cnc2ncc(-c3cccc(Cl)c3)cc21` [Example 41, 1-(6-(3-chlorophenyl)-1H-imidazo[4,5-b]pyridin-1-yl)-3-((2R,3S)-3-hydroxypiperidin-2-yl)propan-2-one]: the IC50 at PRS enzyme is less than 100 nM; in the assay with NCI-H460 cells it was no less than 10000 nM.

As to `O=C(C[C@H]1NCCC[C@@H]1O)Cn1cnc2ccc(-c3ccccc3F)nc21` [Example 43, 1-(5-(2-fluorophenyl)-3H-imidazo[4,5-b]pyridin-3-yl)-3-((2R,3S)-3-hydroxypiperidin-2-yl)propan-2-one], the IC50 on PRS enzyme was 100 to 500 nM; in the assay with NCI-H460 cells it was no more than 3000 nM.

With `O=C(C[C@H]1NCCC[C@@H]1O)Cn1cnc2ccc(-c3cccc(F)c3)nc21` [Example 44, 1-(5-(3-fluorophenyl)-3H-imidazo[4,5-b]pyridin-3-yl)-3-((2R,3S)-3-hydroxypiperidin-2-yl)propan-2-one], the IC50 is less than 100 nM at PRS enzyme and no more than 3000 nM in the assay with NCI-H460 cells.

Consider `O=C(C[C@H]1NCCC[C@@H]1O)Cn1cnc2ccc(-c3ccc(F)cc3)nc21` [Example 45, 1-(5-(4-fluorophenyl)-3H-imidazo[4,5-b]pyridin-3-yl)-3-((2R,3S)-3-hydroxypiperidin-2-yl)propan-2-one], for which the values for the IC50 on PRS enzyme and in the assay with NCI-H460 cells were less than 100 nM and 3000 to 10000 nM, respectively.

As to `O=C(C[C@H]1NCCC[C@@H]1O)Cn1cnc2ccc(-c3cccc(Cl)c3)nc21` [Example 46, 1-(5-(3-chlorophenyl)-3H-imidazo[4,5-b]pyridin-3-yl)-3-((2R,3S)-3-hydroxypiperidin-2-yl)propan-2-one], the IC50 was less than 100 nM at PRS enzyme and no more than 3000 nM in the assay with NCI-H460 cells.
